Measured values taken from PubChem BioAssay (NCI).
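How tested: cells in 96-well plates exposed to compound for 48 hours at five concentrations. TGI: total growth inhibition.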

Tests used:
Experiment in all cases: DTP human tumour cell line panel, 48 h
[1] = test system: NCI-H522 lung
[2] = test system: UO-31 renal
[3] = test system: SNB-19 CNS
[4] = test system: CCRF-CEM leukemia
[5] = test system: A549 NSCLC
[6] = test system: HCC-2998 colon
[7] = test system: SN12C renal
[8] = test system: BT-549 breast
[9] = test system: IGROV1 ovarian
[10] = test system: SF-539 CNS
[11] = test system: UACC-257 melanoma
[12] = test system: SF-295 CNS
[13] = test system: HCT-116 colon
[14] = test system: OVCAR-4 ovarian
[15] = test system: SW-620 colon
[16] = test system: UACC-62 melanoma
[17] = test system: OVCAR-8 ovarian
[18] = test system: MALME-3M melanoma
[19] = test system: RPMI-8226 leukemia
[20] = test system: A498 renal
[21] = test system: OVCAR-5 ovarian
[22] = test system: NCI/ADR-RES ovarian
[23] = test system: SK-MEL-5 melanoma
[24] = test system: 786-0 renal
[25] = test system: COLO 205 colon
[26] = test system: DU-145 prostate
[27] = test system: SK-MEL-28 melanoma
[28] = test system: HL-60(TB) leukemia
[29] = test system: K-562 leukemia
[30] = test system: MDA-N
[31] = test system: SK-OV-3 ovarian
[32] = test system: MOLT-4 leukemia
[33] = test system: SR leukemia
[34] = test system: ACHN renal
[35] = test system: MDA-MB-435
[36] = test system: RXF 393 renal
[37] = test system: HOP-92 NSCLC
[38] = test system: EKVX NSCLC
[39] = test system: HS 578T breast
[40] = test system: HCT-15 colon
[41] = test system: TK-10 renal
[42] = test system: OVCAR-3 ovarian
[43] = test system: NCI-H460 lung
[44] = test system: MCF7 breast
[45] = test system: LOX IMVI melanoma
[46] = test system: KM12 colon
[47] = test system: NCI-H23 lung
[48] = test system: M14 melanoma
[49] = test system: HT29 colon
[50] = test system: SF-268 CNS
[51] = test system: HOP-62 NSCLC
[52] = test system: CAKI-1 renal
[53] = test system: SNB-75 CNS

In the case of `CCOC(=O)/C(=C\NCC(O)c1ccccc1)c1nc2ccccc2[nH]1` (stereo not drawn), the TGI [1] was 49 µM, the TGI [2] was 94.4 µM and the TGI [3] was > 100 µM. The TGI [4] was 33.3 µM, the TGI [5] was > 100 µM and the TGI [6] was 42.2 µM. For the same molecule, the TGI [7] was > 100 µM, the TGI [8] was 98.7 µM and the TGI [9] was 57.4 µM. It also gave a TGI [10] of 47.8 µM, a TGI [11] of 42.5 µM and a TGI [12] of 67 µM. For the same molecule, the TGI [13] was 86.3 µM, the TGI [14] was 75.5 µM and the TGI [15] was > 100 µM. It also gave a TGI [16] of 34.8 µM, a TGI [17] of 69.9 µM and a TGI [18] of 52 µM. It also gave a TGI [19] of 29.4 µM, a TGI [20] of 64.1 µM and a TGI [21] of 83.8 µM. The TGI [22] was 67.9 µM, the TGI [23] was 22.9 µM and the TGI [24] was > 100 µM. The TGI [25] was 49.8 µM, the TGI [26] was > 100 µM and the TGI [27] was 39.6 µM. The TGI [28] was 37.1 µM, the TGI [29] was 59.6 µM and the TGI [30] was 82.7 µM. The TGI [31] was > 100 µM, the TGI [32] was 34.3 µM and the TGI [33] was 42.7 µM. The TGI [34] was 28.8 µM, the TGI [35] was 51.8 µM and the TGI [36] was > 100 µM. The TGI [37] was 65.5 µM, the TGI [38] was 91.5 µM and the TGI [39] was 39.5 µM. For the same molecule, the TGI [40] was 74.3 µM, the TGI [41] was > 100 µM and the TGI [42] was > 100 µM. For the same molecule, the TGI [43] was 50.5 µM, the TGI [44] was 69 µM and the TGI [45] was 37.7 µM. It also gave a TGI [46] of 67.9 µM, a TGI [47] of 59.6 µM and a TGI [48] of 93.5 µM. For the same molecule, the TGI [49] was 56.7 µM, the TGI [50] was 40.5 µM and the TGI [51] was > 100 µM. For the same molecule, the TGI [52] was > 100 µM and the TGI [53] was 58.2 µM.
